Test results published in patent publication US20230085307A1, “PYRIDAZINONE COMPOUND AND HERBICIDE” (NISSAN CHEMICAL CORPORATION, priority 2019, published 2023).

How the values were obtained:
Italian ryegrass [1] = experiment: Test Example 5: herbicidal effect by foliage application, plastic box (Table 20, symbol K); assay type: in vivo, Italian ryegrass (Lolium multiflorum); conditions: foliage application, three weeks after application
In short: (§1)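 Plants were sown into sterilized diluvial soil under about 1.5 cm cover and kept in a greenhouse at 25° C. to 30° C. Fourteen days on, foliage received an even spray of the diluted emulsion. Herbicidal or crop effect was judged three weeks afterwards.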

velvetleaf [2] = experiment: Test Example 5: herbicidal effect by foliage application, plastic box (Table 20, symbol M); assay type: in vivo, velvetleaf (Abutilon theophrasti); conditions: foliage application, three weeks after application
In short: as §1

windgrass [3] = experiment: Test Example 5: herbicidal effect by foliage application, plastic box (Table 20, symbol L); assay type: in vivo, windgrass (Apera spica-venti); conditions: foliage application, three weeks after application
In short: as §1

false cleavers [4] = experiment: Test Example 5: herbicidal effect by foliage application, plastic box (Table 20, symbol Q); assay type: in vivo, false cleavers (Galium spurium); conditions: foliage application, three weeks after application
In short: as §1

chickweed [5] = experiment: Test Example 4: herbicidal effect by soil treatment (Table 19, symbol P); assay type: in vivo, common chickweed (Stellaria media); conditions: amount of applied herbicide 320 g/ha
In short: (§2)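 Pre-emergence style soil spray: seeds under ~1.5 cm sterilized diluvial soil received a uniform coat of emulsion diluted to the predetermined herbicide amount. Greenhouse 25–30° C; readout at week three on previously defined criteria.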

Italian ryegrass [6] = experiment: Test Example 4: herbicidal effect by soil treatment (Table 19, symbol K); assay type: in vivo, Italian ryegrass (Lolium multiflorum); conditions: amount of applied herbicide 320 g/ha
In short: as §2

redroot pigweed [7] = experiment: Test Example 4: herbicidal effect by soil treatment (Table 19, symbol N); assay type: in vivo, redroot pigweed (Amaranthus retroflexus); conditions: amount of applied herbicide 320 g/ha
In short: as §2

green foxtail [8] = experiment: Test Example 4: herbicidal effect by soil treatment (Table 19, symbol G); assay type: in vivo, green foxtail (Setaria viridis); conditions: amount of applied herbicide 320 g/ha
In short: as §2

southern crabgrass [9] = experiment: Test Example 4: herbicidal effect by soil treatment (Table 19, symbol F); assay type: in vivo, southern crabgrass (Digitaria ciliaris); conditions: amount of applied herbicide 320 g/ha
In short: as §2

false cleavers [10] = experiment: Test Example 4: herbicidal effect by soil treatment (Table 19, symbol Q); assay type: in vivo, false cleavers (Galium spurium); conditions: amount of applied herbicide 320 g/ha
In short: as §2

green foxtail [11] = experiment: Test Example 5: herbicidal effect by foliage application, plastic box (Table 20, symbol G); assay type: in vivo, green foxtail (Setaria viridis); conditions: foliage application, three weeks after application
In short: as §1

Chinese sprangletop = experiment: Test Example 3: herbicidal effect by foliage application, Wagner pot (Table 18, symbol D); assay type: in vivo, chinese sprangletop (Leptochloa chinensis); conditions: 320 g/ha
In short: (§3)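 Plants were sown in alluvial soil held under 0.1–0.5 cm standing water and grown 14 days in a greenhouse at 25–30 °C. An emulsifiable formulation, water-diluted to the set dose, was then sprayed onto the foliage, and effects were scored three weeks later using previously defined criteria.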

windgrass [12] = experiment: Test Example 4: herbicidal effect by soil treatment (Table 19, symbol L); assay type: in vivo, windgrass (Apera spica-venti); conditions: amount of applied herbicide 320 g/ha
In short: as §2

redroot pigweed [13] = experiment: Test Example 5: herbicidal effect by foliage application, plastic box (Table 20, symbol N); assay type: in vivo, redroot pigweed (Amaranthus retroflexus); conditions: foliage application, three weeks after application
In short: as §1

barnyard grass [14] = experiment: Test Example 4: herbicidal effect by soil treatment (Table 19, symbol H); assay type: in vivo, barnyard grass (Echinochloa crus-galli); conditions: amount of applied herbicide 320 g/ha
In short: as §2

wild oat [15] = experiment: Test Example 5: herbicidal effect by foliage application, plastic box (Table 20, symbol I); assay type: in vivo, wild oat (Avena fatua); conditions: foliage application, three weeks after application
In short: as §1

blackgrass [16] = experiment: Test Example 5: herbicidal effect by foliage application, plastic box (Table 20, symbol J); assay type: in vivo, blackgrass (Alopecurus myosuroides); conditions: foliage application, three weeks after application
In short: as §1

persian speedwell [17] = experiment: Test Example 5: herbicidal effect by foliage application, plastic box (Table 20, symbol R); assay type: in vivo, Persian speedwell (Veronica persica); conditions: foliage application, three weeks after application
In short: as §1

lambsquarters [18] = experiment: Test Example 5: herbicidal effect by foliage application, plastic box (Table 20, symbol O); assay type: in vivo, lambsquarters (Chenopodium album); conditions: foliage application, three weeks after application
In short: as §1

velvetleaf [19] = experiment: Test Example 4: herbicidal effect by soil treatment (Table 19, symbol M); assay type: in vivo, velvetleaf (Abutilon theophrasti); conditions: amount of applied herbicide 320 g/ha
In short: as §2

wild oat [20] = experiment: Test Example 4: herbicidal effect by soil treatment (Table 19, symbol I); assay type: in vivo, wild oat (Avena fatua); conditions: amount of applied herbicide 320 g/ha
In short: as §2

rice flat sedge = experiment: Test Example 3: herbicidal effect by foliage application, Wagner pot (Table 18, symbol E); assay type: in vivo, rice flat sedge (Cyperus iria); conditions: 320 g/ha
In short: as §3

persian speedwell [21] = experiment: Test Example 4: herbicidal effect by soil treatment (Table 19, symbol R); assay type: in vivo, Persian speedwell (Veronica persica); conditions: amount of applied herbicide 320 g/ha
In short: as §2

barnyard grass [22] = experiment: Test Example 5: herbicidal effect by foliage application, plastic box (Table 20, symbol H); assay type: in vivo, barnyard grass (Echinochloa crus-galli); conditions: foliage application, three weeks after application
In short: as §1

lambsquarters [23] = experiment: Test Example 4: herbicidal effect by soil treatment (Table 19, symbol O); assay type: in vivo, lambsquarters (Chenopodium album); conditions: amount of applied herbicide 320 g/ha
In short: as §2

southern crabgrass [24] = experiment: Test Example 5: herbicidal effect by foliage application, plastic box (Table 20, symbol F); assay type: in vivo, southern crabgrass (Digitaria ciliaris); conditions: foliage application, three weeks after application
In short: as §1

blackgrass [25] = experiment: Test Example 4: herbicidal effect by soil treatment (Table 19, symbol J); assay type: in vivo, blackgrass (Alopecurus myosuroides); conditions: amount of applied herbicide 320 g/ha
In short: as §2

barnyard grass [26] = experiment: Test Example 3: herbicidal effect by foliage application, Wagner pot (Table 18, symbol H); assay type: in vivo, barnyard grass (Echinochloa crus-galli); conditions: 320 g/ha
In short: as §3

chickweed [27] = experiment: Test Example 5: herbicidal effect by foliage application, plastic box (Table 20, symbol P); assay type: in vivo, common chickweed (Stellaria media); conditions: foliage application, three weeks after application
In short: as §1

Cc1nn(C)c(=O)c(-c2c(-c3ccsc3)sc3ccccc23)c1O [1-083]
herbicidal effect grade, K: Italian ryegrass (Italian ryegrass [1]; 320 g/ha): 4 (Herbicidal rate of 70% or more and less than 90%)
herbicidal effect grade, M: velvetleaf (velvetleaf [2]; 320 g/ha): 5 (Herbicidal rate of 90% or more (almost completely withered))
herbicidal effect grade, L: windgrass (windgrass [3]; 320 g/ha): 3 (Herbicidal rate of 40% or more and less than 70%)
herbicidal effect grade, Q: false cleavers (false cleavers [4]; 320 g/ha): 4 (Herbicidal rate of 70% or more and less than 90%)
herbicidal effect rating, P: chickweed (chickweed [5]): 5 (Herbicidal rate of 90% or more (almost completely withered))
herbicidal effect rating, K: Italian ryegrass (Italian ryegrass [6]): 3 (Herbicidal rate of 40% or more and less than 70%)
herbicidal effect rating, N: redroot pigweed (redroot pigweed [7]): 0 (Herbicidal rate of 5% or less (almost no effect))
herbicidal effect rating, G: green foxtail (green foxtail [8]): 0 (Herbicidal rate of 5% or less (almost no effect))
herbicidal effect rating, F: southern crabgrass (southern crabgrass [9]): 0 (Herbicidal rate of 5% or less (almost no effect))
herbicidal effect rating, Q: false cleavers (false cleavers [10]): 3 (Herbicidal rate of 40% or more and less than 70%)
herbicidal effect grade, G: green foxtail (green foxtail [11]; 320 g/ha): 0 (Herbicidal rate of 5% or less (almost no effect))
herbicidal effect on D (Chinese sprangletop), rating 0-5 (Chinese sprangletop): 3 (Herbicidal rate of 40% or more and less than 70%)
herbicidal effect rating, L: windgrass (windgrass [12]): 0 (Herbicidal rate of 5% or less (almost no effect))
herbicidal effect grade, N: redroot pigweed (redroot pigweed [13]; 320 g/ha): 3 (Herbicidal rate of 40% or more and less than 70%)
herbicidal effect rating, H: barnyard grass (barnyard grass [14]): 0 (Herbicidal rate of 5% or less (almost no effect))
herbicidal effect grade, I: wild oat (wild oat [15]; 320 g/ha): 3 (Herbicidal rate of 40% or more and less than 70%)
herbicidal effect grade, J: blackgrass (blackgrass [16]; 320 g/ha): 1 (Herbicidal rate of 5% or more and less than 20%)
herbicidal effect grade, R: persian speedwell (persian speedwell [17]; 320 g/ha): 3 (Herbicidal rate of 40% or more and less than 70%)
herbicidal effect grade, O: lambsquarters (lambsquarters [18]; 320 g/ha): 0 (Herbicidal rate of 5% or less (almost no effect))
herbicidal effect rating, M: velvetleaf (velvetleaf [19]): 0 (Herbicidal rate of 5% or less (almost no effect))
herbicidal effect rating, I: wild oat (wild oat [20]): 2 (Herbicidal rate of 20% or more and less than 40%)
herbicidal effect on E (rice flat sedge), rating 0-5 (rice flat sedge): 4 (Herbicidal rate of 70% or more and less than 90%)
herbicidal effect rating, R: persian speedwell (persian speedwell [21]): 5 (Herbicidal rate of 90% or more (almost completely withered))
herbicidal effect grade, H: barnyard grass (barnyard grass [22]; 320 g/ha): 0 (Herbicidal rate of 5% or less (almost no effect))
herbicidal effect rating, O: lambsquarters (lambsquarters [23]): 0 (Herbicidal rate of 5% or less (almost no effect))
herbicidal effect grade, F: southern crabgrass (southern crabgrass [24]; 320 g/ha): 2 (Herbicidal rate of 20% or more and less than 40%)
herbicidal effect rating, J: blackgrass (blackgrass [25]): 0 (Herbicidal rate of 5% or less (almost no effect))
herbicidal effect on H (barnyard grass), rating 0-5 (barnyard grass [26]): 3 (Herbicidal rate of 40% or more and less than 70%)
herbicidal effect grade, P: chickweed (chickweed [27]; 320 g/ha): 5 (Herbicidal rate of 90% or more (almost completely withered))

Cc1nn(C)c(=O)c(-c2c(-c3cccc4c3OCC4)sc3ccccc23)c1O [1-103]
K: Italian ryegrass, herbicidal effect (Italian ryegrass [1]; AAH 320 g/ha): 3 (Herbicidal rate of 40% or more and less than 70%)
M: velvetleaf, herbicidal effect (velvetleaf [2]; AAH 320 g/ha): 4 (Herbicidal rate of 70% or more and less than 90%)
L: windgrass, herbicidal effect (windgrass [3]; AAH 320 g/ha): 0 (Herbicidal rate of 5% or less (almost no effect))
Q: false cleavers, herbicidal effect (false cleavers [4]; AAH 320 g/ha): 4 (Herbicidal rate of 70% or more and less than 90%)
herbicidal effect rating, P: chickweed (chickweed [5]): 1 (Herbicidal rate of 5% or more and less than 20%)
herbicidal effect rating, K: Italian ryegrass (Italian ryegrass [6]): 0 (Herbicidal rate of 5% or less (almost no effect))
herbicidal effect rating, N: redroot pigweed (redroot pigweed [7]): 3 (Herbicidal rate of 40% or more and less than 70%)
herbicidal effect rating, G: green foxtail (green foxtail [8]): 3 (Herbicidal rate of 40% or more and less than 70%)
herbicidal effect rating, F: southern crabgrass (southern crabgrass [9]): 2 (Herbicidal rate of 20% or more and less than 40%)
herbicidal effect rating, Q: false cleavers (false cleavers [10]): 0 (Herbicidal rate of 5% or less (almost no effect))
G: green foxtail, herbicidal effect (green foxtail [11]; AAH 320 g/ha): 3 (Herbicidal rate of 40% or more and less than 70%)
herbicidal effect on D (Chinese sprangletop), rating 0-5 (Chinese sprangletop): 4 (Herbicidal rate of 70% or more and less than 90%)
herbicidal effect rating, L: windgrass (windgrass [12]): 0 (Herbicidal rate of 5% or less (almost no effect))
N: redroot pigweed, herbicidal effect (redroot pigweed [13]; AAH 320 g/ha): 3 (Herbicidal rate of 40% or more and less than 70%)
herbicidal effect rating, H: barnyard grass (barnyard grass [14]): 2 (Herbicidal rate of 20% or more and less than 40%)
I: wild oat, herbicidal effect (wild oat [15]; AAH 320 g/ha): 0 (Herbicidal rate of 5% or less (almost no effect))
J: blackgrass, herbicidal effect (blackgrass [16]; AAH 320 g/ha): 3 (Herbicidal rate of 40% or more and less than 70%)
R: persian speedwell, herbicidal effect (persian speedwell [17]; AAH 320 g/ha): 5 (Herbicidal rate of 90% or more (almost completely withered))
O: lambsquarters, herbicidal effect (lambsquarters [18]; AAH 320 g/ha): 3 (Herbicidal rate of 40% or more and less than 70%)
herbicidal effect rating, M: velvetleaf (velvetleaf [19]): 0 (Herbicidal rate of 5% or less (almost no effect))
herbicidal effect rating, I: wild oat (wild oat [20]): 0 (Herbicidal rate of 5% or less (almost no effect))
herbicidal effect on E (rice flat sedge), rating 0-5 (rice flat sedge): 3 (Herbicidal rate of 40% or more and less than 70%)
herbicidal effect rating, R: persian speedwell (persian speedwell [21]): 2 (Herbicidal rate of 20% or more and less than 40%)
H: barnyard grass, herbicidal effect (barnyard grass [22]; AAH 320 g/ha): 0 (Herbicidal rate of 5% or less (almost no effect))
herbicidal effect rating, O: lambsquarters (lambsquarters [23]): 3 (Herbicidal rate of 40% or more and less than 70%)
F: southern crabgrass, herbicidal effect (southern crabgrass [24]; AAH 320 g/ha): 3 (Herbicidal rate of 40% or more and less than 70%)
herbicidal effect rating, J: blackgrass (blackgrass [25]): 0 (Herbicidal rate of 5% or less (almost no effect))
herbicidal effect on H (barnyard grass), rating 0-5 (barnyard grass [26]): 3 (Herbicidal rate of 40% or more and less than 70%)
P: chickweed, herbicidal effect (chickweed [27]; AAH 320 g/ha): 5 (Herbicidal rate of 90% or more (almost completely withered))
